Key:
[1] = Ultimate tensile strength (UTS) of demineralized dentin after cross-linker treatment (Example 1); set-up: species or system human; details: for Ultimate tensile strength, mean: pH 7.4
From the text: (§1) Fixation Processes: Ten sound freshly extracted human molars were used in this study. The teeth were thawed, cleaned of adhering soft tissues, and the occlusal surfaces were ground flat with #320 grit Silicon Carbide paper under running water to remove part of the enamel. Flattening of the occlusal surface by removal of the cusps enables accurate sectioning of samples in beam shape. Teeth were sectioned into 0.5±0.1 by 0.5±0.1 mm thick beams (n=20 beams per tooth) with a slow speed diamond wafering blade (Buehler-Series 15LC Diamond, Lake Bluff, Ill., USA) under constant water coolant (FIG. 1A).
(§2) The slabs were randomly divided into two groups: 1) undemineralized dentin and 2) demineralized dentin (FIG. 1A). In Group 2, dentin beams were immersed in 10% phosphoric acid solution (Fisher Scientific, New Jersey, N.J.) for a period of 5 hours. X-rays were taken from the specimens to verify complete tissue demineralization. Specimens were thoroughly rinsed with distilled water for 10 minutes to remove any residue of the phosphoric acid.
(§3) Specimens from groups 1 and 2 were subdivided according to the dentin treatment (FIG. 1B). In Treatment A, specimens were immersed in PBS solution (pH: 7.4) as a control. In Treatment B, specimens were immersed in 0.5% Proanthocyanidin (MegaNatural—Polyphenolics Ind.) PBS solution (PA) at a pH of 7.4. In Treatment C, specimens were immersed in 0.625% Genipin (Wako Pure Chemical Ind.) PBS solution (GE) at a pH of 7.4. In Treatment D, specimens were immersed in 5% glutaraldehyde solution (GD) (Fisher Scientific, New Jersey, N.J.) at a pH of 7.4. Specimens were kept in their respective solutions for 4 and 40 hours at room temperature. After the incubation periods, specimens were thoroughly rinsed with distilled and deionized water to remove any remains of cross-linking agents and buffer.
(§4) UTS testing: For UTS evaluation, the specimens were glued with a cyanoacrylate adhesive (Zapit—Dental Ventures of America Inc., Corona, Calif.) to a Ciucchi's jig, which was mounted on a universal testing machine (EZ Test, Shimazu Co., Kyoto, Japan) and subjected to microtensile testing at a crosshead speed of 1 mm/min (FIG. 1C). Means and standard deviations were calculated and expressed in microtensile bond strengths (MPa). Statistical analysis was performed using a two-way ANOVA and Fisher's PLSD tests (p<0.05).

[2] = Ultimate tensile strength (UTS) of undemineralized (mineralized) dentin after cross-linker treatment (Example 1); set-up: species or system human; details: 0.625% GE or 5% GD; for Ultimate tensile strength, mean: pH 7.4
From the text: as §1, §2, §3, §4

Question: For `COC(=O)C1=CO[C@@H](O)[C@@H]2C(CO)=CC[C@H]12` [GE, genipin], which “Ultimate tensile strength, mean” value ([1]; 4 hours in 0.5% PA, 0.625% GE or 5% GD) is on record?
Answer: 11.0 MPa

Question: And the “Ultimate tensile strength, mean” value ([1]; 40 hours in 0.5% PA, 0.625% GE or 5% GD)?
Answer: 18.2 MPa

Question: And the “increase in the UTS values” ([1]; 40 hours treatment, versus control)?
Answer: approximately 80%

Question: What about the “Ultimate tensile strength, pooled data” value ([1]; pooled over 4 and 40 hours, 0.5% PA, 0.625% GE or 5% GD) of the same compound?
Answer: 14.6 B MPa

Question: And the “UTS values compared to the control group (statistics)” value ([1]; two-way ANOVA, Fisher's PLSD)?
Answer: statistically significant increase

Question: What about the “Ultimate tensile strength, mean” value ([2]; 4 hours in 0.5% PA) of the same compound?
Answer: 84.2 MPa

Question: And the “Ultimate tensile strength, mean” value ([2]; 40 hours in 0.5% PA)?
Answer: 94.2 MPa

Question: And the “Ultimate tensile strength, pooled data” value ([2]; pooled over 4 and 40 hours, 0.5% PA)?
Answer: 89.2 A MPa

— patent US20090123581A1, “COLLAGEN CROSS-LINKING AGENTS ON DENTAL RESTORATIVE TREATMENT AND PREVENTIVE DENTISTRY” (THE BOARD OF TRUSTEES OF THE UNIVERSITY OF ILLINOIS, priority 2006, published 2009)
